Test results: the NIST ThermoML archive (doi:10.1016/j.jct.2009.03.010)

Tests used:
[1] = Crystal; DTA
[2] = molar heat capacity at constant pressure; conditions: 101.33 kPa, Crystal
[3] = Molar enthalpy of transition or fusion; conditions: Crystal; DSC

c1cc2ccc3ccc4ccc5ccc6ccc1c1c2c3c4c5c61 [coronene]
Conditions | Molar enthalpy of transition or fusion [kJ/mol] | Normal melting temperature [°C]
[1] | – | 436
[3] | 21.2 | –

molar heat capacity at constant pressure [J/K/mol], [2]
Conditions | DSC | Small sample (50 mg) DSC
295 K | – | 312.97
298.15 K | 317.46 | 317.17
300 K | – | 318.97
310 K | – | 333.99
320 K | – | 344.5
330 K | – | 355.32
340 K | – | 366.43
350 K | – | 373.94
360 K | – | 383.85
370 K | – | 394.66
380 K | – | 405.18
410 K | – | 417.19
420 K | – | 422.3
430 K | – | 435.51
440 K | – | 439.12
450 K | – | 447.82
460 K | – | 453.83
470 K | – | 463.44
478 K | – | 470.65
